# Measured values from PubChem BioAssay AID1745844 (Carcinogenic Potency Database (CPDB), 2022).
# Calls of active or inactive are those of the source. How the calls were made is not given here.
# Test system: rodent lifetime carcinogenesis bioassay, tumor incidence TD50
# Experiment: chronic cancer bioassays in animals – CPDB, compiled studies (AID 1745844)
# Conditions: in feed
structure (smiles),measurement,setting,value
Nc1ncc([N+](=O)[O-])s1,carcinogen call,"mouse, strain B6C3F1, females, site: any site (literature study), lesion: several types, types named in the paper, dosed 104 weeks, study length 104 weeks",negative (inactive)
same,TD50,"mouse, strain B6C3F1, females, site: liver, lesion: hepatocellular adenoma + hepatocellular carcinoma + neoplastic nodule, dosed 104 weeks, study length 104 weeks",109 mg/kg/day
same,TD50,"mouse, strain B6C3F1, females, site: lung, lesion: alveolar/bronchiolar adenoma + alveolar/bronchiolar carcinoma, dosed 104 weeks, study length 104 weeks",63.5 mg/kg/day
same,carcinogen call,"mouse, strain B6C3F1, males, site: any site (literature study), lesion: several types, types named in the paper, dosed 104 weeks, study length 104 weeks",negative (inactive)
same,TD50,"rat, strain Fischer 344, females, site: any site (literature study), lesion: several types, types named in the paper, dosed 110 weeks, study length 111 weeks",326 mg/kg/day
same,TD50,"rat, strain Fischer 344, females, site: uterus, lesion: endometrial stromal polyp, dosed 110 weeks, study length 111 weeks",57.2 mg/kg/day (inactive)
same,TD50,"rat, strain Fischer 344, males, site: all sites + multiple organs, lesion: lymphocytic leukemia + malignant lymphoma + undifferentiated leukemia, dosed 110 weeks, study length 111 weeks",445 mg/kg/day
same,TD50,"rat, strain Fischer 344, males, site: all sites, lesion: leukemia + lymphoma, dosed 110 weeks, study length 111 weeks",27.6 mg/kg/day
same,TD50,"rat, strain Fischer 344, males, site: any site (literature study), lesion: several types, types named in the paper, dosed 110 weeks, study length 111 weeks",32.3 mg/kg/day
same,TD50,"rat, strain Fischer 344, males, site: liver, lesion: hepatocellular adenoma + hepatocellular carcinoma + neoplastic nodule, dosed 110 weeks, study length 111 weeks",318 mg/kg/day
same,TD50,"rat, strain Fischer 344, males, site: multiple organs, lesion: granulocytic leukemia, dosed 110 weeks, study length 111 weeks",90.2 mg/kg/day
same,TD50,"rat, strain Sprague-Dawley, females, site: any site (literature study), lesion: several types, types named in the paper, dosed 46 weeks, study length 66 weeks",32.5 mg/kg/day
same,TD50,"rat, strain Sprague-Dawley, females, site: kidney/pelvis, lesion: transitional-cell carcinoma, dosed 46 weeks, study length 66 weeks",157 mg/kg/day
same,TD50,"rat, strain Sprague-Dawley, females, site: lung, lesion: alveolar-cell carcinoma, dosed 46 weeks, study length 66 weeks",157 mg/kg/day
same,TD50,"rat, strain Sprague-Dawley, females, site: mammary gland, lesion: several types, types named in the paper, dosed 46 weeks, study length 66 weeks",44.6 mg/kg/day
